pEC50: −log10 of the molar value.
What was measured:
Valsa malicola (V. mali) = assay: In vitro fungicidal activity, mycelial (hyphae) growth inhibition on PDA; format: cell-based
[1] = test system: Botrytis cinerea (B. cinerea); assay: as above; format: cell-based
[2] = test system: Pyricularia oryzae (P. oryzae); assay: microbe, parasite or virus in culture; format: cell-based
[3] = test system: Phomopsis capsici (P. capsica); assay: In vitro fungicidal activity, mycelial (hyphae) growth inhibition on PDA; format: cell-based; conditions: mean ± SD of three replicates
[4] = test system: Alternaria solani (A. solani); assay: as above; format: cell-based
[5] = test system: Rhizoctonia solani (R. solani); assay: microbe, parasite or virus in culture; format: cell-based
[6] = test system: Fusarium graminearum (F. graminearum); assay: microbe, parasite or virus in culture; format: cell-based
[7] = test system: Pythium aphanidermatum (P. aphanidermatum); assay: In vitro fungicidal activity, mycelial (hyphae) growth inhibition on PDA; format: cell-based; conditions: mean ± SD of three replicates
[8] = Solubility classification in representative solvents (Vogel protocol); format: physicochemical; conditions: 25 °C, test amount 0.1 g
Experimental: This investigation details how to determine the solubility of terbinafine and its salts, guided by the experimental protocol in Vogel’s Textbook of Practical Organic Chemistry. Based on the Snyder polarity index values of the representative solvents, each solvent was tested for its ability to dissolve the target analytes. The solubility data was classified into three categories based on the observed extent of dissolution. […] The experimental procedures were performed at 25 °C and under ambient pressure.

[9] = Solubility of saturated solutions by HPLC at 25 °C; format: physicochemical
From the text: The filtrate was then passed through a 0.22 μm nylon membrane filter and subjected to HPLC analysis. Based on Wang’s report about the chromatographic parameters, modifications to the mobile phase ratio were made. The replicability of the results was ensured by performing each measurement in triplicate.

[10] = test system: B. cinerea on cherry tomatoes; assay: In vivo antifungal bioassay on cherry tomatoes; design: species or system Botrytis cinerea; conditions: 20 mg/L
[11] = Critical micelle concentration by electrical conductivity; conditions: 25 °C
Experimental: The critical micelle concentrations (CMCs) of the TISs were measured using electrical conductivity at 25 °C, as shown in Figure S16.
The critical micelle concentrations (CMCs) of all the TISs were determined using an electrical conductivity meter (Leica Desktop Conductivity Meter DDSJ-308F, Shanghai Oustor Industrial Co., Ltd. Shanghai, China).

[12] = Surface tension of saturated aqueous solutions, Du Noüy ring method; conditions: 25 °C
Experimental: This method involved adjusting the stage positioning of the solvent container such that a platinum ring could be immersed below the liquid interface or pulled through the meniscus. […] The maximum force was recorded as the surface tension of the solvent. To ensure accuracy, the platinum ring was thoroughly cleaned between each measurement through rinsing with double-distilled water and wiping it dry. The surface tension determination was performed in quadruplicate.

[13] = 50 mg/L, mean ± SD of three replicates

Compound: CN(C/C=C/C#CC(C)(C)C)Cc1cccc2ccccc12.O=C(O)c1ccco1 [TIS 5, (E)-N,6,6-trimethyl-N-(naphthalen-1-ylmethyl)hept-2-en-4-yn-1-aminium furan-2-carboxylate]
- Inhibition Rate at 50 mg/L (%) V. m (Valsa malicola (V. mali); [13]): 100 ± 0%
- EC50 (mg/L) (Valsa malicola (V. mali); V. mali): 1.49 mg/L
- improvement of antifungal activity compared to terbinafine (Valsa malicola (V. mali); V. mali, from EC50): 14%
- pEC50 (Valsa malicola (V. mali); V. mali, read-out: EC50 (μmol/L)): 5.43
- Inhibition Rate at 50 mg/L (%) B. c [1, 13]: 100 ± 0%
- EC50 (mg/L) ([1]; B. cinerea): 0.13 mg/L
- pEC50 ([1]; B. cinerea, read-out: EC50 (μmol/L)): 6.48
- Inhibition Rate at 50 mg/L (%) P. o [2, 13]: 96.68 ± 0.42%
- EC50 (mg/L) ([2]; P. oryzae): 0.49 mg/L
- pEC50 ([2]; P. oryzae, read-out: EC50): 5.91
- Inhibition Rate at 50 mg/L (%) P. c [3]: 55.88 ± 1.89%
- Inhibition Rate at 50 mg/L (%) A. s [4, 13]: 98.67 ± 0.61%
- EC50 (mg/L) ([4]; A. solani): 0.08 mg/L
- improvement of antifungal activity compared to terbinafine ([4]; A. solani, from EC50): 20%
- pEC50 ([4]; A. solani, read-out: EC50 (μmol/L)): 6.70
- EC50 (mg/L) [5]: 2.43 mg/L
- Inhibition Rate at 50 mg/L (%) R. s ([5]; 50 mg/L): 82.02 ± 0.91%
- pEC50 ([5]; read-out: EC50): 5.22
- Inhibition Rate at 50 mg/L (%) F. g [6, 13]: 100 ± 0%
- EC50 (mg/L) ([6]; F. graminearum): 0.11 mg/L
- pEC50 ([6]; F. graminearum, read-out: EC50): 6.57
- Inhibition Rate at 50 mg/L (%) P. a [7]: 71.96 ± 2.68%
- Solubility in n-Hexane ([8]; Snyder polarity index 0.0): − (“−” means insoluble in a 3 mL solvent, poor solubility)
- Solubility in Toluene ([8]; Snyder polarity index 2.3): + (“+” means soluble in a 1 mL solvent, good solubility)
- Solubility in Chloroform ([8]; Snyder polarity index 4.1): + (“+” means soluble in a 1 mL solvent, good solubility)
- Solubility in Ethyl acetate ([8]; Snyder polarity index 4.3): + (“+” means soluble in a 1 mL solvent, good solubility)
- Solubility in Isopropanol ([8]; Snyder polarity index 4.3): + (“+” means soluble in a 1 mL solvent, good solubility)
- Solubility in Acetone ([8]; Snyder polarity index 5.1): + (“+” means soluble in a 1 mL solvent, good solubility)
- Solubility in Acetonitrile ([8]; Snyder polarity index 6.2): + (“+” means soluble in a 1 mL solvent, good solubility)
- Solubility in DMSO ([8]; Snyder polarity index 6.5): + (“+” means soluble in a 1 mL solvent, good solubility)
- Solubility in Methanol ([8]; Snyder polarity index 6.6): + (“+” means soluble in a 1 mL solvent, good solubility)
- Solubility in Water ([8]; Snyder polarity index 9.0): − (“−” means insoluble in a 3 mL solvent, poor solubility)
- Solubility, n-Hexane ([9]; Table S1): 1.02 µM
- water solubility ([9]; water): 5880 µM
- Diameter of infection (cm) 4 days ([10]; 4 days after treatment): 0.61 cm
- Diameter of infection (cm) 7 days ([10]; 7 days after treatment): 0.74 cm
- critical micelle concentration (CMC) [11]: 0.66 mmol/L
- surface tension of the saturated aqueous solution [12]: 51.26 mN·m^−1

From PMC10303384, “The Effect of Terbinafine and Its Ionic Salts on Certain Fungal Plant Pathogens” (Molecules, 2023)
